From patent US6894061B2, “Substituted dihydrophenanthridinesulfonamides” (Wyeth, priority 2002, dated 2005)
Read-outs that look alike come from different tables or passages of the source.

What was measured:
IL-6 = IL-6 test procedure (IL-6 ELISA of media) in Ad5-wt-ERα infected HAECT-1 cells; format: cell-based, human; settings: for Emax: read-out: Interleukin-6 Efficacy (%); for IC50: read-out: Interleukin-6 IC50
Procedure: After four hours, cells were washed with EBM-BSA and incubated overnight in the same medium. Following overnight incubation, cells were washed with EBM-BSA and infected for 2 hours with 6 mL of a 1:10 dilution of Ad5-3x(NFκB).Luc virus (Adenovirus luciferase expression vector driven by 3 repeats of the MHC NFκb site 5′ to the thymidine kinase promoter) in EBM-BSA. After two hours, cells were washed and incubated at 34° C. for 1 hour. […] Control (no ER infection) cells were processed as above without Ad5-wt-hERα virus infection.
ERα infected HAECT-1 cells or control cells were thawed, diluted 42× in warm EBM-BSA, plated into 96-well plates at 0.1 mL/well and incubated for 4 hours at 34° C. Test compounds were added to the cells as 2× stocks in EBM-BSA containing 2 ng/mL IL-1β (R&D Systems) and the 96-well plates were returned to the incubator (34° C.). After 15-20 hours, 100 μL aliquots of media were removed from the cells and assayed for IL-6 content using a BioSource human IL-6 ELISA Kit. Cells were subsequently washed with 300 μL of Dulbecco's phosphate buffered saline and lysed in 50 μL of Cell Culture Lysis Reagent (Promega). Luciferase was determined on a Wallac Victor^2 Luminometer (Gaithersburg, Md.) using 10 μL of lysate and mixing with 100 μL of Promega Luciferase Assay reagent. Creatine kinase was determined from the rate of increase in A340 following addition of 100 μL of CK assay reagent (Sigma, cat. No 47-10) to the remainder of the cell lysate.
For IC50 and EC50 calculations, mean IL-6, luciferase or CK values versus log10 of the compound concentration were fitted to a four parameter logistic equation. The IC50/EC50 value, ‘Hill slope’, upper and lower limits of the curve were iteratively estimated.

creatine kinase = assay: Creatine kinase (CK) test procedure in Ad5-wt-ERα infected HAECT-1 cells; format: cell-based, human
ER/NF-κB = ER/NF-κB luciferase reporter in Ad5-wt-ERα infected HAECT-1 cells; format: cell-based, human; settings: Homo sapiens, HAECT1, IL-1β; for Emax: read-out: ER/NFκB Efficacy (%)*; for IC50: read-out: ER/NFκB IC50
[1] = Homo sapiens, HAECT1, Ad5-wt-ERα infected HAECT-1 cells, read-out: Creatin Kinase EC50
[2] = Homo sapiens, HAECT1, Ad5-wt-ERα infected HAECT-1 cells, read-out: Creatin Kinase Efficacy (%)
[3] = Ad5-wt-ERα infected HAECT-1 cells

Row | IC50 (ER/NF-κB) [µM] | melting point [°C] | IC50 (IL-6; Homo sapiens, HAECT1, IL-1β) [µM] | EC50 (creatine kinase; [1]) [µM] | EC50 (creatine kinase; Homo sapiens, HAECT1, read-out: Creatin Kinase EC50) [µM] | Compound | Emax (IL-6; Homo sapiens, HAECT1, IL-1β) [%] | Emax at 10 µM (creatine kinase; Homo sapiens, HAECT1, @10 μM, Ad5-wt-ERα infected HAECT-1 cells, read-out: Creatin Kinase Efficacy (%)) [%] | Emax (ER/NF-κB) [%] | Emax (creatine kinase; [2]) [%] | Interleukin-6 Efficacy (%) (IL-6; IL-1β) | IC50 (IL-6; IL-1β) [µM] | Creatin Kinase Efficacy (%) (creatine kinase; [3]) | EC50 (creatine kinase; Ad5-wt-ERα infected HAECT-1 cells, read-out: Creatin Kinase EC50) [µM]
1 | 2.85 | 193 | – | – | – | C[C@@H]1c2cc(F)ccc2-c2ccccc2N1S(=O)(=O)c1ccc(O)cc1 [Example 34, 4-{[(R)-8-Fluoro-6-methylphenanthridin-5(6H)-yl]sulfonyl}phenol] | 35 | < 35 | 89 | – | – | – | – | –
2 | – | 150 to 152 | 2.34 | 0.954 | – | C[C@@H]1c2ccccc2-c2ccc(F)cc2N1S(=O)(=O)c1ccc(O)cc1O [Example 110, 4-{[(6R)-3-Fluoro-6-methylphenanthridin-5(6H)-yl]sulfonyl}benzene-1,3-diol] | 38 | – | – | -7 | – | – | – | –
3 | – | 162 to 165 | 0.092 | 0.032 | – | CC1c2ccccc2-c2ccc(F)cc2N1S(=O)(=O)c1ccc(O)cc1 (stereo not shown) [Example 105, 4-[(3-Fluoro-6-methylphenanthridin-5(6H)-yl)sulfonyl]phenol] | > 100 | – | – | 17 | – | – | – | –
4 | – | 166.5 to 167 | 0.04 | 0.661 | – | C[C@H]1c2cc(F)ccc2-c2ccccc2N1S(=O)(=O)c1ccc(OS(N)(=O)=O)cc1 [Example 126, 4-{[(6S)-8-Fluoro-6-methylphenanthridin-5(6H)-yl]sulfonyl}phenyl sulfamate] | 99 | – | – | 61 | – | – | – | –
5 | – | 178.2 to 182 | 0.224 | 0.624 | – | C[C@@H]1c2ccccc2-c2ccc(Cl)cc2N1S(=O)(=O)c1ccc(O)cc1O [Example 124, 4-{[(6R)-3-Chloro-6-methylphenanthridin-5(6H)-yl]sulfonyl}benzene-1,3-diol] | 19 | – | – | 4 | – | – | – | –
6 | – | 195 to 196 | 0.173 | 0.284 | – | CC1c2ccccc2-c2cc(F)ccc2N1S(=O)(=O)c1cccc(O)c1 (stereo not shown) [Example 113, 3-[(2-Fluoro-6-methylphenanthridin-5(6H)-yl)sulfonyl]phenol] | 100 | – | – | 40 | – | – | – | –
7 | – | 204 | 0.03 | 0.107 | – | CC1c2ccccc2-c2ccc(Cl)cc2N1S(=O)(=O)c1ccc(O)cc1 (stereo not shown) [Example 121, 4-[(3-Chloro-6-methylphenanthridin-5(6H)-yl)sulfonyl]phenol] | 113 | – | – | 29 | – | – | – | –
8 | – | 151 to 153 | 0.022 | 0.102 | – | C[C@H]1c2ccccc2-c2ccc(F)cc2N1S(=O)(=O)c1ccc(O)cc1O [Example 111, 4-{[(6S)-3-Fluoro-6-methylphenanthridin-5(6H)-yl]sulfonyl}benzene-1,3-diol] | 114 | – | – | 33 | – | – | – | –
9 | – | 215 | 0.096 | – | – | CC1c2ccccc2-c2ccc(Cl)cc2N1S(=O)(=O)c1cccc(O)c1 (stereo not shown) [Example 118, 3-[(3-Chloro-6-methylphenanthridin-5(6H)-yl)sulfonyl]phenol] | 103 | – | – | -16 | – | – | – | –
10 | – | 194 to 196 | 0.13 | 0.326 | – | CC1c2ccc(F)cc2-c2cc(F)ccc2N1S(=O)(=O)c1ccc(O)cc1 (stereo not shown) [Example 116, 4-[(2,9-Difluoro-6-methylphenanthridin-5(6H)-yl)sulfonyl]phenol] | 99 | – | – | 23 | – | – | – | –
11 | – | 216 to 218 | 0.175 | 0.337 | – | CC1c2ccccc2-c2cc(F)ccc2N1S(=O)(=O)c1ccc(O)cc1 (stereo not shown) [Example 112, 4-[(2-Fluoro-6-methylphenanthridin-5(6H)-yl)sulfonyl]phenol] | 100 | – | – | 1 | – | – | – | –
12 | 0.033 | 193 | 0.0234 | 0.091 | – | C[C@H]1c2cc(F)ccc2-c2ccccc2N1S(=O)(=O)c1ccc(O)cc1 [Example 33, 4-{[(S)-8-Fluoro-6-methylphenanthridin-5(6H)-yl]sulfonyl}phenol] | 108 | – | 99 | 21 | – | – | – | –
13 | – | 165.5 to 171 | 0.104 | 0.04 | – | CC1c2ccc(F)cc2-c2cc(F)ccc2N1S(=O)(=O)c1cccc(O)c1 (stereo not shown) [Example 117, 3-[(2,9-Difluoro-6-methylphenanthridin-5(6H)-yl)sulfonyl]phenol] | 101 | – | – | 8 | – | – | – | –
14 | – | 213.5 to 220 | 0.007 | – | – | C[C@H]1c2ccccc2-c2ccc(Cl)cc2N1S(=O)(=O)c1ccc(O)cc1 [Example 123, 4-{[(6S)-3-Chloro-6-methylphenanthridin-5(6H)-yl]sulfonyl}phenol] | 154 | – | – | 2 | – | – | – | –
15 | – | 167.2 to 173 | 0.081 | 0.102 | – | CC1c2ccc(F)cc2-c2ccc(F)cc2N1S(=O)(=O)c1cccc(O)c1 (stereo not shown) [Example 115, 3-[(3,9-Difluoro-6-methylphenanthridin-5(6H)-yl)sulfonyl]phenol] | 102 | – | – | 16 | – | – | – | –
16 | – | 164 to 167 | 0.043 | 1.42 | – | CC1c2ccccc2-c2ccc(F)cc2N1S(=O)(=O)c1cccc(O)c1 (stereo not shown) [Example 106, 3-[(3-Fluoro-6-methylphenanthridin-5(6H)-yl)sulfonyl]phenol] | 104 | – | – | 22 | – | – | – | –
17 | ~0.001 | – | ~0.001 | – | 0.0058 | C[C@]12CC[C@@H]3c4ccc(O)cc4CC[C@H]3[C@@H]1CC[C@@H]2O [Example E2, 17β-estradiol, reference compound] | – | – | – | – | – | – | – | –
18 | – | – | 0.171 | – | – | C[C@@H]1c2cc(F)ccc2-c2ccc(F)cc2N1S(=O)(=O)c1ccc(O)cc1O (single isomer, unassigned) [Example 104] | 43 | – | – | 9 | – | – | – | –
19 | – | – | – | – | – | CC1c2ccc(F)cc2-c2ccc(F)cc2N1S(=O)(=O)c1ccc(O)cc1 (stereo not shown) [Example 114, 4-[(3,9-Difluoro-6-mthylphenanthridin-5(6H)-yl)sulfonyl]ph nol] | – | – | – | – | 98 | 0.078 | 23 | –
20 | – | 220.9 to 223 | 0.018 | – | – | C[C@@H]1c2ccccc2-c2ccc(Cl)cc2N1S(=O)(=O)c1cccc(O)c1 [Example 119, 3-{[(6R)-3-Chloro-6-methylphenanthridin-5(6H)-yl]sulfonyl}phenol] | 35 | – | – | 21 | – | – | – | –
21 | – | – | – | – | – | C[C@@H]1c2ccccc2-c2ccc(Cl)cc2N1S(=O)(=O)c1ccc(O)cc1 [Example 122, 4-{[(6R)-3-Chloro-6-methylphenanthridin-5(6)-yl]sulfonyl}phenol] | – | – | – | – | 37 | 0.464 | 14 | 0.805
